From US20060154990A1, “Use of MEK inhibitors in treating abnormal cell growth” (AGOURON PHARMACEUTICALS, INC., priority 2004, published 2006)
Several values for one entry are separate records, joined by “and”; a condition that tells them apart may be missing. Equal values may be shown once.

Experiments:
[1] = test system: BxPc-3 pancreatic xenograft; assay: Antitumor activity in BxPc-3 tumor model; type: in vivo, mice; settings: oral 25 mg/kg once a day for 14 days
[2] = Metabolites of [14C] Compound 1 in cryopreserved hepatocytes; type: in vitro ADME, dog; settings: [C-14] Compound 1 10 μM, 180 mins
Protocol: (§1) Incubations were performed in hepatocytes for 3 hours and liver microsomes for 1.5 hours and were stopped with the addition of methanol. HPLC, in conjuction with ionspray 3D iontrap mass spectrometry, and simultaneous radioactive monitoring were used to detect and identify the resulting metabolites.
Metabolite identification of radiolabeled Compound 1 was performed after incubation with rat, dog, monkey and human cryopreserved hepatocytes and liver microsomes. […] Besides glucuronidation, metabolites derived from other clearance pathways are also observed. For instance, M 15 (acid cleavage product) accounts for 11% of the total radioactivity in the human chromatogram.

[3] = Plasma pharmacokinetics after multiple oral doses in advanced cancer patients
pERK in MiaPaCa2 tumors = assay: Tumor pERK inhibition and PK-PD in MiaPaCa2 xenograft; parameters: species or system mice; settings: Mus musculus, MIA PaCa-2, 24 h, 25 mg/kg oral, read-out: Ex vivo % pERK inhibition at 24 h
[4] = Metabolites of [14C] Compound 1 in liver microsomes; type: in vitro ADME, human; settings: [C-14] Compound 1 10 μM, 90 mins
Protocol: as §1
(§2) This acid cleavage product is further metabolized to form hydroxylated (M 11, 16% in rat) and hydroxylated, defluorinated products (M 17, 19% in rat).

panel of 27 kinases = assay: Specificity against a panel of 27 kinases; settings: 10 μM
[5] = Metabolites of [14C] Compound 1 in liver microsomes; type: in vitro ADME, rat; settings: [C-14] Compound 1 10 μM, 90 mins
Protocol: as §1, §2

[6] = test system: ERK phosphorylation in HCT-116 colon cells; assay: cells; settings: Homo sapiens, HCT-116, 1 h, read-out: Cellular IC50
clinical = settings: human, plasma, oral
[7] = 1 mg BID, melanoma, individual patient
[8] = 1 mg QD, breast, individual patient
[9] = 1 mg QD, melanoma, individual patients
[10] = 2 mg BID, colon, individual patient
[11] = 2 mg BID, lung, individual patient
[12] = 2 mg BID, melanoma, individual patients
[13] = 4 mg BID, melanoma, individual patient
[14] = 15 mg BID, breast, individual patient
[15] = 15 mg BID, melanoma, individual patient
[16] = 20 mg BID continuous, melanoma, individual patients
[17] = 30 mg BID, melanoma, individual patient
[18] = patients, 1 mg BID, C1D21, fasting, mean
[19] = patients, 1 mg QD, C1D21, fasting, mean
[20] = patients, 2 mg BID, C1D21, fasting, mean
[21] = patients, 15 mg BID, C1D21, fasting, mean
[22] = patients, 20 mg BID continuous, C1D21, fasting, mean

SMILES: O=C(NOC[C@H](O)CO)c1ccc(F)c(F)c1Nc1ccc(I)cc1F [Compound 1, N-[(R)-2,3-dihydroxy-propoxy]-3,4-difluoro-2-(2-fluoro-4-iodo-phenylamino)-benzamide]
- CR (complete responder) [1]: 2/10
- PR (partial responder) [1]: 8/10
- T − C [1]: 20.6 days
- Tumor Free [1]: 0/10
- % ROI Dog [2]: 50.45%
- Compound 1 AUC(0-24), Day 21 [3, 7]: 275 ng·h/mL
- Compound 1 Css, avg [3, 7]: 11 ng/mL
- Compound 1 AUC(0-24), Day 21 [3, 8]: 130 ng·h/mL
- Compound 1 Css, avg [3, 8]: 5.4 ng/mL
- Compound 1 AUC(0-24), Day 21 [3, 9]: 170 ng·h/mL and 112 ng·h/mL
- Compound 1 Css, avg [3, 9]: 7.1 ng/mL and 4.7 ng/mL
- Compound 1 AUC(0-24), Day 21 [3, 10]: 898 ng·h/mL
- Compound 1 Css, avg [3, 10]: 37 ng/mL
- Compound 1 AUC(0-24), Day 21 [3, 11]: 943 ng·h/mL
- Compound 1 Css, avg [3, 11]: 39 ng/mL
- Compound 1 AUC(0-24), Day 21 [3, 12]: 785 ng·h/mL and 2020 ng·h/mL
- Compound 1 Css, avg [3, 12]: 33 ng/mL and 84 ng/mL
- Compound 1 AUC(0-24), Day 21 ([3]; 4 mg BID, lung, individual patient): 1974 ng·h/mL
- Compound 1 AUC(0-24), Day 21 [3, 13]: 1426 ng·h/mL
- Compound 1 Css, avg [3, 13]: 59 ng/mL
- Compound 1 AUC(0-24), Day 21 [3, 14]: 7680 ng·h/mL
- Compound 1 Css, avg [3, 14]: 320.0 ng/mL
- Compound 1 AUC(0-24), Day 21 [3, 15]: 2480 ng·h/mL
- Compound 1 Css, avg [3, 15]: 103.3 ng/mL
- Compound 1 AUC(0-24), Day 21 [3, 16]: 5480 ng·h/mL and 5800 ng·h/mL
- Compound 1 Css, avg [3, 16]: 228.3 ng/mL and 241.7 ng/mL
- Compound 1 AUC(0-24), Day 21 ([3]; 20 mg BID, melanoma, individual patient): 10560 ng·h/mL
- Compound 1 AUC(0-24), Day 21 ([3]; 30 mg BID, colon, individual patient): 12000 ng·h/mL
- Compound 1 AUC(0-24), Day 21 [3, 17]: 12920 ng·h/mL
- Compound 1 Css, avg [3, 17]: 538.3 ng/mL
- overall coefficient of variation (CV) for AUC(0-24) ([3]; fasted state, inter-subject variability): 39%
- elimination plasma half-life ([3]; patients): 5 to 16 h
- AUC(0-24) [3, 18]: 338 ng·h/mL
- Ctrough [3, 18]: 9.17 ng/mL
- AUC(0-24) [3, 19]: 143 ng·h/mL
- Cmax [3, 19]: 22.3 ng/mL
- Ctrough [3, 19]: 3.00 ng/mL
- Tmax [3, 19]: 2 h
- AUC(0-24) [3, 20]: 1161 ng·h/mL
- Ctrough [3, 20]: 27.4 ng/mL
- Ctrough ([3]; patients, 4 mg BID, C1D21, fasting, mean): 28.0 ng/mL
- AUC(0-24) [3, 21]: 5687 ng·h/mL
- Ctrough [3, 21]: 142 ng/mL
- AUC(0-24) [3, 22]: 6572 ng·h/mL
- Cmax [3, 22]: 989 ng/mL
- Ctrough [3, 22]: 83.7 ng/mL
- T1/2 [3, 22]: 5.1 h
- Tmax [3, 22]: 2 h
- Ctrough ([3]; patients, 20 mg BID, C1D21, fasting, mean): 112 ng/mL
- Ctrough ([3]; patients, 30 mg BID, C1D21, fasting, mean): 157 ng/mL
- inhibition at 25 mg/kg (pERK in MiaPaCa2 tumors): 93%
- % ROI Human [4]: 77.36%
- inhibition of panel of 27 kinases (panel of 27 kinases): completely refractory to inhibition
- % ROI Rat [5]: 52.30%
- IC50 [6]: 0.28 nM
- half-life (clinical): 5 to 14 h
- Cmax (clinical; 1 mg): 41.1 ng/mL
- Tmax (clinical; 1 mg): 1 h
- half-life (clinical; 1 mg): 13.9 h
- Cmax (clinical; 2 mg): 152 ng/mL
- Tmax (clinical; 2 mg): 1 h
- AUC(0-t) (clinical; 4 mg): 1580 ng·h/mL
- Cmax (clinical; 4 mg): 208 ng/mL
- Tmax (clinical; 4 mg): 1 h
- concentration at 21 day (clinical; 4 mg): 82 ng/mL
- half-life (clinical; 4 mg): 7.6 h
- Cmax (clinical; 15 mg): 706 ng/mL
- Tmax (clinical; 15 mg): 1 h
- half-life (clinical; 15 mg): 12.6 h
- AUC(0-t) (clinical; 20 mg): 6990 ng·h/mL
- Cmax (clinical; 20 mg): 766 ng/mL
- Tmax (clinical; 20 mg): 2 h
- concentration at 21 day (clinical; 20 mg): 440 ng/mL
- half-life (clinical; 20 mg): 8.3 h
- AUC(0-t) (clinical; 30 mg): 12500 ng·h/mL
- Cmax (clinical; 30 mg): 1640 ng/mL
- Tmax (clinical; 30 mg): 2 h
- concentration at 21 day (clinical; 30 mg): 500 ng/mL
- half-life (clinical; 30 mg): 4.8 h
